Measured values reported in US10292998B1, “Compositions and methods for prevention and treatment of eye infections” (priority 2018, dated 2019).

Columns and labels:
[1] = tested on: bacteria on the surface of the eyeball; experiment: Bacterial count on the surface of the eyeball after eye drops of PVP-I/NAC combinations; assay type: in vivo, human; conditions: NAC alone
Description: The combinations were then applied, with one or more drops of the composition, each between 7 and 30 microliters in total volume, applied by syringe to the eye of a patient over a period of between 30 and 180 seconds. […] In comparison, experiments using NAC alone was ineffective in lowering bacterial count.

[2] = tested on: bacterial and viral infections; experiment: Treatment and prevention of eye infections, summary of the experiments; assay type: in vivo, human
Description: Experiments have determined that PVP-I can be mixed with N-acetylcysteine (NAC), preferably in combination with an aqueous solution such as saline or water for improved lubrication, to form a medical eye drop treatment, which has the unexpected result of greatly reducing the bacteria count while simultaneously maintaining the pain at a tolerable level, or in some cases reducing the pain to a non-perceptible level. The active treatment components are preferably mixed by stirring at room temperature (that is, roughly 15-25° C.) and added to an aqueous solution. The PVP-I concentration of the mixture can be as low as 1.25% by volume of the treatment composition without substantially reducing its effectiveness at preventing eye infections of bacterial, viral, and fungal varieties.
Experiments were performed with differing ratios of PVP-I, NAC, and aqueous solution in combination. The PVP-I percentage by volume was varied between 0.5% and 80%, and the NAC percentage by volume was varied between 0.5% and 10%. The combinations were then applied, with one or more drops of the composition, each between 7 and 30 microliters in total volume, applied by syringe to the eye of a patient over a period of between 30 and 180 seconds.
An average eye drop contains 35 microliters, but the space between the human eye and the eyelid can only contain, in an average adult human, approximately 7 microliters of liquid. A human instinctively blinks upon addition of an eye drop to the eye, thereby forcing out most of the eye drop. As a result, only a fraction of a first eye drop will remain in the eye to mix with a second eye drop. […] As a result, the composition described above is not achieved.

[3] = tested on: bacteria on the eye surface; conditions: 0.5%-0.7% PVP-I solution by volume dripped into the eye over 30 seconds, repeated every 90 seconds four times; cited from earlier work
[4] = cited from earlier work
[5] = tested on: viral conjunctivitis; conditions: cited from earlier work

Row | Molecule | lowering bacterial count [1] | treating or preventing infections ([2]; NAC without PVP-I) | reduction of bacteria on the eye surface [3] [%] | tolerability on the eye ([4]; 1.25% or 2.5% PVP-I concentrations) | pain during application ([4]; 10% PVP-I concentration by volume, surface of the eye) | pain on application to the human eye ([4]; PVP-I especially at concentrations greater than 2.5% by volume) | discomfort ([2]; summary of experiments) | treating and preventing bacterial infections ([2]; summary of experiments) | treating viral infections ([2]; summary of experiments) | treating pre-existing infections, especially viral infections such as viral conjunctivitis ([5]; PVP-I without NAC) | effect on viral conjunctivitis infections ([5]; solution of 1.25% PVP-I by volume without NAC, previous study)
1 | CC(=O)N[C@@H](CS)C(=O)O [NAC, N-acetylcysteine] | ineffective | ineffective | – | – | – | – | – | – | – | – | –
2 | Povidone-iodine [PVP-I] | – | – | 99.9 | tolerable but still highly irritating | intolerable | extreme immediate pain and a continuing burning sensation | highly uncomfortable | effective | ineffective | largely ineffective | no significant effect
